{"source": "ChEMBL document CHEMBL2401670", "about": "“Synthesis and biological evaluation of rhodanine derivatives bearing a quinoline moiety as potent antimicrobial agents” (Bioorg Med Chem Lett, 2013)", "data": [{"test_system": "Staphylococcus aureus", "test": "Antibacterial activity against Staphylococcus aureus RN4220 after 24 hrs by broth microdilution method", "assay_type": "functional", "settings": "RN4220, 24 h", "units": {"MIC": "µg/mL"}, "values": [{"smiles": "CCC(C)[C@@H](C(=O)O)N1C(=O)/C(=C/c2cc3cc(OCc4ccc(C)cc4)ccc3nc2Cl)SC1=S", "note": "(stereo partly drawn)", "MIC": 2}, {"smiles": "CC(C)C[C@@H](C(=O)O)N1C(=O)/C(=C/c2cc3cc(OCc4ccccc4Cl)ccc3nc2Cl)SC1=S", "MIC": 1}, {"smiles": "CC(C)C[C@@H](C(=O)O)N1C(=O)/C(=C/c2cc3cc(OCc4cccc(Cl)c4)ccc3nc2Cl)SC1=S", "MIC": 2}, {"smiles": "CC(C)C[C@@H](C(=O)O)N1C(=O)/C(=C/c2cc3cc(OCc4ccc(Cl)cc4)ccc3nc2Cl)SC1=S", "MIC": 1}, {"smiles": "CC(C)C[C@@H](C(=O)O)N1C(=O)/C(=C/c2cc3cc(OCc4ccc(F)cc4)ccc3nc2Cl)SC1=S", "MIC": 2}, {"smiles": "Cc1ccc(COc2ccc3nc(Cl)c(/C=C4\\SC(=S)N([C@@H](CC(C)C)C(=O)O)C4=O)cc3c2)cc1", "MIC": 1}]}, {"test_system": "Staphylococcus aureus", "test": "Ratio of gatifloxacin MIC to compound MIC for quinolone-resistant Staphylococcus aureus CCARM 3505", "assay_type": "functional", "settings": "not given", "values": [{"smiles": "CC(C)C[C@@H](C(=O)O)N1C(=O)/C(=C/c2cc3cc(OCc4ccc(Cl)cc4)ccc3nc2Cl)SC1=S", "Ratio": 4}]}, {"test_system": "Escherichia coli", "test": "Antibacterial activity against Escherichia coli CCARM 1356 after 24 hrs by broth microdilution method", "assay_type": "functional", "settings": "CCARM 1356, 24 h", "units": {"MIC": "µg/mL"}, "values": [{"smiles": "CCC(C)[C@@H](C(=O)O)N1C(=O)/C(=C/c2cc3cc(OCc4ccc(C)cc4)ccc3nc2Cl)SC1=S", "note": "(stereo partly drawn)", "MIC": "> 64"}, {"smiles": "CC(C)C[C@@H](C(=O)O)N1C(=O)/C(=C/c2cc3cc(OCc4ccccc4Cl)ccc3nc2Cl)SC1=S", "MIC": "> 64"}, {"smiles": "CC(C)C[C@@H](C(=O)O)N1C(=O)/C(=C/c2cc3cc(OCc4cccc(Cl)c4)ccc3nc2Cl)SC1=S", "MIC": "> 64"}, {"smiles": "CC(C)C[C@@H](C(=O)O)N1C(=O)/C(=C/c2cc3cc(OCc4ccc(Cl)cc4)ccc3nc2Cl)SC1=S", "MIC": "> 64"}, {"smiles": "CC(C)C[C@@H](C(=O)O)N1C(=O)/C(=C/c2cc3cc(OCc4ccc(F)cc4)ccc3nc2Cl)SC1=S", "MIC": "> 64"}, {"smiles": "Cc1ccc(COc2ccc3nc(Cl)c(/C=C4\\SC(=S)N([C@@H](CC(C)C)C(=O)O)C4=O)cc3c2)cc1", "MIC": "> 64"}]}, {"test_system": "Staphylococcus aureus", "test": "Ratio of norfloxacin MIC to compound MIC for methicillin-resistant Staphylococcus aureus CCARM 3167", "assay_type": "functional", "settings": "not given", "values": [{"smiles": "CC(C)C[C@@H](C(=O)O)N1C(=O)/C(=C/c2cc3cc(OCc4ccc(Cl)cc4)ccc3nc2Cl)SC1=S", "Ratio": 4}]}, {"test_system": "Staphylococcus aureus", "test": "Antibacterial activity against quinolone-resistant Staphylococcus aureus CCARM 3519 after 24 hrs by broth microdilution method", "assay_type": "functional", "settings": "CCARM 3519, 24 h", "units": {"MIC": "µg/mL"}, "values": [{"smiles": "CCC(C)[C@@H](C(=O)O)N1C(=O)/C(=C/c2cc3cc(OCc4ccc(C)cc4)ccc3nc2Cl)SC1=S", "note": "(stereo partly drawn)", "MIC": 2}, {"smiles": "CC(C)C[C@@H](C(=O)O)N1C(=O)/C(=C/c2cc3cc(OCc4ccccc4Cl)ccc3nc2Cl)SC1=S", "MIC": 2}, {"smiles": "CC(C)C[C@@H](C(=O)O)N1C(=O)/C(=C/c2cc3cc(OCc4cccc(Cl)c4)ccc3nc2Cl)SC1=S", "MIC": 2}, {"smiles": "CC(C)C[C@@H](C(=O)O)N1C(=O)/C(=C/c2cc3cc(OCc4ccc(Cl)cc4)ccc3nc2Cl)SC1=S", "MIC": 1}, {"smiles": "CC(C)C[C@@H](C(=O)O)N1C(=O)/C(=C/c2cc3cc(OCc4ccc(F)cc4)ccc3nc2Cl)SC1=S", "MIC": 1}, {"smiles": "Cc1ccc(COc2ccc3nc(Cl)c(/C=C4\\SC(=S)N([C@@H](CC(C)C)C(=O)O)C4=O)cc3c2)cc1", "MIC": 1}]}, {"test_system": "Staphylococcus aureus", "test": "Antibacterial activity against Staphylococcus aureus KCTC 209 after 24 hrs by broth microdilution method", "assay_type": "functional", "settings": "KCTC 209, 24 h", "units": {"MIC": "µg/mL"}, "values": [{"smiles": "CCC(C)[C@@H](C(=O)O)N1C(=O)/C(=C/c2cc3cc(OCc4ccc(C)cc4)ccc3nc2Cl)SC1=S", "note": "(stereo partly drawn)", "MIC": 4}, {"smiles": "CC(C)C[C@@H](C(=O)O)N1C(=O)/C(=C/c2cc3cc(OCc4ccccc4Cl)ccc3nc2Cl)SC1=S", "MIC": 4}, {"smiles": "CC(C)C[C@@H](C(=O)O)N1C(=O)/C(=C/c2cc3cc(OCc4cccc(Cl)c4)ccc3nc2Cl)SC1=S", "MIC": 4}, {"smiles": "CC(C)C[C@@H](C(=O)O)N1C(=O)/C(=C/c2cc3cc(OCc4ccc(Cl)cc4)ccc3nc2Cl)SC1=S", "MIC": 4}, {"smiles": "CC(C)C[C@@H](C(=O)O)N1C(=O)/C(=C/c2cc3cc(OCc4ccc(F)cc4)ccc3nc2Cl)SC1=S", "MIC": 8}, {"smiles": "Cc1ccc(COc2ccc3nc(Cl)c(/C=C4\\SC(=S)N([C@@H](CC(C)C)C(=O)O)C4=O)cc3c2)cc1", "MIC": 8}]}, {"test_system": "Staphylococcus aureus", "test": "Ratio of norfloxacin MIC to compound MIC for methicillin-resistant Staphylococcus aureus CCARM 3506", "assay_type": "functional", "settings": "not given", "values": [{"smiles": "CC(C)C[C@@H](C(=O)O)N1C(=O)/C(=C/c2cc3cc(OCc4ccc(Cl)cc4)ccc3nc2Cl)SC1=S", "Ratio": 4}]}, {"test_system": "Staphylococcus aureus", "test": "Ratio of norfloxacin MIC to compound MIC for quinolone-resistant Staphylococcus aureus CCARM 3505", "assay_type": "functional", "settings": "not given", "values": [{"smiles": "CC(C)C[C@@H](C(=O)O)N1C(=O)/C(=C/c2cc3cc(OCc4ccc(Cl)cc4)ccc3nc2Cl)SC1=S", "Ratio": 4}]}, {"test_system": "Staphylococcus aureus", "test": "Ratio of moxifloxacin MIC to compound MIC for quinolone-resistant Staphylococcus aureus CCARM 3505", "assay_type": "functional", "settings": "not given", "values": [{"smiles": "CC(C)C[C@@H](C(=O)O)N1C(=O)/C(=C/c2cc3cc(OCc4ccc(Cl)cc4)ccc3nc2Cl)SC1=S", "Ratio": 4}]}, {"test_system": "Staphylococcus aureus", "test": "Antibacterial activity against quinolone-resistant Staphylococcus aureus CCARM 3505 after 24 hrs by broth microdilution method", "assay_type": "functional", "settings": "CCARM 3505, 24 h", "units": {"MIC": "µg/mL"}, "values": [{"smiles": "CCC(C)[C@@H](C(=O)O)N1C(=O)/C(=C/c2cc3cc(OCc4ccc(C)cc4)ccc3nc2Cl)SC1=S", "note": "(stereo partly drawn)", "MIC": 2}, {"smiles": "CC(C)C[C@@H](C(=O)O)N1C(=O)/C(=C/c2cc3cc(OCc4ccccc4Cl)ccc3nc2Cl)SC1=S", "MIC": 1}, {"smiles": "CC(C)C[C@@H](C(=O)O)N1C(=O)/C(=C/c2cc3cc(OCc4cccc(Cl)c4)ccc3nc2Cl)SC1=S", "MIC": 2}, {"smiles": "CC(C)C[C@@H](C(=O)O)N1C(=O)/C(=C/c2cc3cc(OCc4ccc(Cl)cc4)ccc3nc2Cl)SC1=S", "MIC": 1}, {"smiles": "CC(C)C[C@@H](C(=O)O)N1C(=O)/C(=C/c2cc3cc(OCc4ccc(F)cc4)ccc3nc2Cl)SC1=S", "MIC": 2}, {"smiles": "Cc1ccc(COc2ccc3nc(Cl)c(/C=C4\\SC(=S)N([C@@H](CC(C)C)C(=O)O)C4=O)cc3c2)cc1", "MIC": 1}]}, {"test_system": "Staphylococcus aureus", "test": "Antibacterial activity against methicillin-resistant Staphylococcus aureus CCARM 3506 after 24 hrs by broth microdilution method", "assay_type": "functional", "settings": "CCARM 3506, 24 h", "units": {"MIC": "µg/mL"}, "values": [{"smiles": "CCC(C)[C@@H](C(=O)O)N1C(=O)/C(=C/c2cc3cc(OCc4ccc(C)cc4)ccc3nc2Cl)SC1=S", "note": "(stereo partly drawn)", "MIC": 2}, {"smiles": "CC(C)C[C@@H](C(=O)O)N1C(=O)/C(=C/c2cc3cc(OCc4ccccc4Cl)ccc3nc2Cl)SC1=S", "MIC": 1}, {"smiles": "CC(C)C[C@@H](C(=O)O)N1C(=O)/C(=C/c2cc3cc(OCc4cccc(Cl)c4)ccc3nc2Cl)SC1=S", "MIC": 2}, {"smiles": "CC(C)C[C@@H](C(=O)O)N1C(=O)/C(=C/c2cc3cc(OCc4ccc(Cl)cc4)ccc3nc2Cl)SC1=S", "MIC": 1}, {"smiles": "CC(C)C[C@@H](C(=O)O)N1C(=O)/C(=C/c2cc3cc(OCc4ccc(F)cc4)ccc3nc2Cl)SC1=S", "MIC": 2}, {"smiles": "Cc1ccc(COc2ccc3nc(Cl)c(/C=C4\\SC(=S)N([C@@H](CC(C)C)C(=O)O)C4=O)cc3c2)cc1", "MIC": 2}]}, {"test_system": "Staphylococcus aureus", "test": "Ratio of moxifloxacin MIC to compound MIC for quinolone-resistant Staphylococcus aureus CCARM 3519", "assay_type": "functional", "settings": "not given", "values": [{"smiles": "CC(C)C[C@@H](C(=O)O)N1C(=O)/C(=C/c2cc3cc(OCc4ccc(Cl)cc4)ccc3nc2Cl)SC1=S", "Ratio": 4}]}, {"test_system": "HeLa", "test": "Cytotoxicity against human HeLa cells after 48 hrs by MTT assay", "assay_type": "cell-based", "settings": "not given", "units": {"IC50": "µg/mL"}, "values": [{"smiles": "CCC(C)[C@@H](C(=O)O)N1C(=O)/C(=C/c2cc3cc(OCc4ccc(C)cc4)ccc3nc2Cl)SC1=S", "note": "(stereo partly drawn)", "IC50": 9.09}, {"smiles": "Cc1ccc(COc2ccc3nc(Cl)c(/C=C4\\SC(=S)N([C@@H](CC(C)C)C(=O)O)C4=O)cc3c2)cc1", "IC50": 8.84}]}, {"test_system": "Staphylococcus aureus", "test": "Ratio of gatifloxacin MIC to compound MIC for quinolone-resistant Staphylococcus aureus CCARM 3519", "assay_type": "functional", "settings": "not given", "values": [{"smiles": "CC(C)C[C@@H](C(=O)O)N1C(=O)/C(=C/c2cc3cc(OCc4ccc(Cl)cc4)ccc3nc2Cl)SC1=S", "Ratio": 4}]}, {"test_system": "Staphylococcus aureus", "test": "Antibacterial activity against Staphylococcus aureus KCTC 503 after 24 hrs by broth microdilution method", "assay_type": "functional", "settings": "KCTC 503, 24 h", "units": {"MIC": "µg/mL"}, "values": [{"smiles": "CCC(C)[C@@H](C(=O)O)N1C(=O)/C(=C/c2cc3cc(OCc4ccc(C)cc4)ccc3nc2Cl)SC1=S", "note": "(stereo partly drawn)", "MIC": 4}, {"smiles": "CC(C)C[C@@H](C(=O)O)N1C(=O)/C(=C/c2cc3cc(OCc4ccccc4Cl)ccc3nc2Cl)SC1=S", "MIC": 8}, {"smiles": "CC(C)C[C@@H](C(=O)O)N1C(=O)/C(=C/c2cc3cc(OCc4cccc(Cl)c4)ccc3nc2Cl)SC1=S", "MIC": 64}, {"smiles": "CC(C)C[C@@H](C(=O)O)N1C(=O)/C(=C/c2cc3cc(OCc4ccc(Cl)cc4)ccc3nc2Cl)SC1=S", "MIC": 4}, {"smiles": "CC(C)C[C@@H](C(=O)O)N1C(=O)/C(=C/c2cc3cc(OCc4ccc(F)cc4)ccc3nc2Cl)SC1=S", "MIC": 8}, {"smiles": "Cc1ccc(COc2ccc3nc(Cl)c(/C=C4\\SC(=S)N([C@@H](CC(C)C)C(=O)O)C4=O)cc3c2)cc1", "MIC": 8}]}, {"test_system": "Staphylococcus aureus", "test": "Ratio of norfloxacin MIC to compound MIC for quinolone-resistant Staphylococcus aureus CCARM 3519", "assay_type": "functional", "settings": "not given", "values": [{"smiles": "CC(C)C[C@@H](C(=O)O)N1C(=O)/C(=C/c2cc3cc(OCc4ccc(Cl)cc4)ccc3nc2Cl)SC1=S", "Ratio": 4}]}, {"test_system": "Staphylococcus aureus", "test": "Antibacterial activity against methicillin-resistant Staphylococcus aureus CCARM 3167 after 24 hrs by broth microdilution method", "assay_type": "functional", "settings": "CCARM 3167, 24 h", "units": {"MIC": "µg/mL"}, "values": [{"smiles": "CCC(C)[C@@H](C(=O)O)N1C(=O)/C(=C/c2cc3cc(OCc4ccc(C)cc4)ccc3nc2Cl)SC1=S", "note": "(stereo partly drawn)", "MIC": 2}, {"smiles": "CC(C)C[C@@H](C(=O)O)N1C(=O)/C(=C/c2cc3cc(OCc4ccccc4Cl)ccc3nc2Cl)SC1=S", "MIC": 1}, {"smiles": "CC(C)C[C@@H](C(=O)O)N1C(=O)/C(=C/c2cc3cc(OCc4cccc(Cl)c4)ccc3nc2Cl)SC1=S", "MIC": 1}, {"smiles": "CC(C)C[C@@H](C(=O)O)N1C(=O)/C(=C/c2cc3cc(OCc4ccc(Cl)cc4)ccc3nc2Cl)SC1=S", "MIC": 1}, {"smiles": "CC(C)C[C@@H](C(=O)O)N1C(=O)/C(=C/c2cc3cc(OCc4ccc(F)cc4)ccc3nc2Cl)SC1=S", "MIC": 2}, {"smiles": "Cc1ccc(COc2ccc3nc(Cl)c(/C=C4\\SC(=S)N([C@@H](CC(C)C)C(=O)O)C4=O)cc3c2)cc1", "MIC": 1}]}]}
